Here are results for one compound from patent US12351652B2, “Hemagglutinin-binding peptide” (priority 2019, dated 2025).

Each structure is given as a SMILES string. *1 amine or outer side, *2 acyl side, *3 side chain or, on linkers, in order; H or OH if unused. Where a SMILES comes first, the peptide text is derived from it. Bridges are numbered along the chain shown (N, C = ends). [ ]: non-standard residue; d: D form. The star is where a group is joined. Ethylenediamine = C(CN[*:2])N[*:1]; Hyp = O=C(O)[C@@H]1C[C@@H](O)CN1; NMeF = CN[C@@H](Cc1ccccc1)C(=O)O; Decanoyl = CCCCCCCCCC(=O)*; NMeA = CN[C@@H](C)C(=O)O; Sar = CNCC(=O)O

For assay [1], the system named is influenza virus A/Puerto Rico/8/34 (H1N1). On the set-up: species or system BALB/cA Jcl [SPF] mice. The note with it: mouse.
Assay [2] has the same test system. Type of assay: cell-based.
Assay [3] relates to influenza virus A/Duck/Pennsylvania/84 (H5N2). Type of assay: cell-based.
Assay [4] has as its system influenza virus A/Nagasaki/HA-58/2009 (H1N1). It is filed as cell-based.

On to `CCCCCCCCCC(=O)NCCNC(=O)[C@@H]1CSCC(=O)N[C@@H](Cc2c[nH]c3ccccc23)C(=O)N[C@@H]([C@@H](C)O)C(=O)N(C)CC(=O)N[C@@H](CC(=O)O)C(=O)N(C)[C@@H](Cc2ccccc2)C(=O)N(C)[C@@H](Cc2ccccc2)C(=O)N[C@@H](C)C(=O)N(C)[C@@H](C)C(=O)N[C@@H](Cc2cnc[nH]2)C(=O)N[C@@H](Cc2ccc(O)cc2)C(=O)N[C@@H]([C@@H](C)O)C(=O)N[C@@H](C(C)C)C(=O)N2C[C@H](O)C[C@H]2C(=O)N[C@@H](C)C(=O)N1` [HA152] ({CH2CO}-WT[Sar]D[NMeF][NMeF]A[NMeA]HYTV[Hyp]AC-{Ethylenediamine-Decanoyl}; thioether N-15), for which the “in vivo anti-virus activity compared to peramivir” value in assay [1] was “comparable or superior to peramivir”. The survival rate in assay [1] (in vivo, iv) worked out at 60%. For the same compound, the “inhibition of cell death in low concentration range” value in assay [2], in assay [3] and in assay [4] was “remarkable inhibition of cell death” throughout.
